# Reference: patent publication US20240148821A1, “PHARMACEUTICAL USE OF CYCLIC PEPTIDE COMPOUND” (CHUGAI SEIYAKU KABUSHIKI KAISHA, priority 2021, published 2024)
# pIC50: −log10 of the molar value. Numbered stars: 1 amine (or outer) side, 2 acyl side, 3 side chain; on linkers, the order of the positions; unused ones are H or OH. Bridge positions count the residues as written; N and C are the ends. Square brackets hold non-standard residues; d marks the D form. Peptide text beside a SMILES is read from it. * marks the point of attachment. hPhe(3-Cl-4-CF3) = N[C@@H](CCc1ccc(C(F)(F)F)c(Cl)c1)C(=O)O; hPhe(3-F,4-CF3) = N[C@@H](CCc1ccc(C(F)(F)F)c(F)c1)C(=O)O; NMePhe(4-Cl) = CN[C@@H](Cc1ccc(Cl)cc1)C(=O)O; NMePhe(4-Me) = CN[C@@H](Cc1ccc(C)cc1)C(=O)O; X48 = CN([C@@H](CCc1cccnc1)C(=O)[*:2])[*:1]; NMePhe(4-F) = CN[C@@H](Cc1ccc(F)cc1)C(=O)O; NMedβ3hAla = C[C@H](CC(=O)[*:2])N(C)[*:1]; NMeGly(cPent) = CN[C@H](C(=O)O)C1CCCC1; Phe(3-I) = N[C@@H](Cc1cccc(I)c1)C(=O)O; NMeY = CN[C@@H](Cc1ccc(O)cc1)C(=O)O; NMeCha = CN[C@@H](CC1CCCCC1)C(=O)O; NMeAoc(2) = CCCCCC[C@H](NC)C(=O)O; NMeChg = CN[C@H](C(=O)O)C1CCCCC1; NMeI = CC[C@H](C)[C@H](NC)C(=O)O; dNMeF = CN[C@H](Cc1ccccc1)C(=O)O; NMeβAla = CN(CCC(=O)[*:2])[*:1]; NMeD = CN[C@@H](CC(=O)O)C(=O)O; CH2CONHtBu = CC(C)(C)NC(=O)C*; NMeL = CN[C@@H](CC(C)C)C(=O)O; NMeV = CN[C@H](C(=O)O)C(C)C; d(β3hA) = C[C@@H](N)CC(=O)O; NMeS = CN[C@@H](CO)C(=O)O; dPip = O=C(O)[C@H]1CCCCN1; NMeA = CN[C@@H](C)C(=O)O; NMeAib = CNC(C)(C)C(=O)O; Nle = CCCC[C@H](N)C(=O)O; Piperidide = C1CCN(*)CC1; Pra = C#CC[C@H](N)C(=O)O; Ac5c = NC1(C(=O)O)CCCC1; Aze = O=C(O)[C@@H]1CCN1; Thp = NC1(C(=O)O)CCOCC1; Aib = CC(C)(N)C(=O)O; Isopentyl = CC(C)CC*; Sar = CNCC(=O)O
# System: Human pancreatic cancer cell line AsPC-1 (G12D mutation Kras)
# Experiment: AsPC-1 cell growth inhibition (AsPC-1 CGI)
# Format: cell-based
# Conditions: read-out: AsPC-1 cell growth inhibition, 50% growth inhibitory concentration (IC50 value); 96 hours, CellTiter-Glo, values classified in ranges
# Protocol: Test compounds were serially dilated with dimethyl sulfoxide, and 200 nL was then dispensed to a U-bottom 96-well plate using Labcyte Echo. […] The cell suspension was dispensed to a. plate containing a test compound at 100 μL per well and incubated at 37° C. in a 5% carbon dioxide gas incubator. 96 hours later, 80 μL of CellTiter-Glo (Promega) was added to each well and fluorescence was measured.
row,SMILES,pIC50
1,CC[C@H](C)[C@@H]1NC(=O)[C@H](CC(C)C)N(C)C(=O)C[C@@H](C(=O)N(C)C)N(C)C(=O)[C@H](C2CCCC2)N(C)C(=O)C2(CCCC2)NC(=O)[C@H](Cc2ccc(C)cc2)N(C)C(=O)[C@H](CCc2ccc(C(F)(F)F)c(Cl)c2)NC(=O)CN(C)C(=O)[C@H](CC2CCCCC2)N(C)C(=O)[C@@H]2CCN2C(=O)[C@H](C)N(C)C1=O [Compound 908] ([NMeL]I[NMeA][Aze][NMeCha][Sar][hPhe(3-Cl-4-CF3)][NMePhe(4-Me)][Ac5c][NMeGly(cPent)][NMeD]-NMe2; lactam N-11),< 6.30
2,CC[C@H](C)[C@@H]1NC(=O)[C@H](CC(C)C)N(C)C(=O)C[C@@H](C)N(C)C(=O)[C@H](CC(C)C)N(C)C(=O)C2(CCOCC2)NC(=O)[C@@H]2CCCN2C(=O)[C@H](CCc2ccc(C(F)(F)F)c(Cl)c2)NC(=O)CN(C)C(=O)[C@H](CC2CCCCC2)N(C)C(=O)CN(C)C(=O)CN(C)C1=O [Compound 742] (cyclo(I[Sar][Sar][NMeCha][Sar][hPhe(3-Cl-4-CF3)]P[Thp][NMeL][NMedβ3hAla][NMeL])),< 6.30
3,CC[C@H](C)[C@@H]1NC(=O)[C@H](CC(C)C)N(C)C(=O)C[C@@H](C(=O)N2CCCCC2)N(C)C(=O)[C@H](C2CCCCC2)N(C)C(=O)C2(CCCC2)NC(=O)[C@@H]2CCCN2C(=O)[C@H](CCc2ccc(C(F)(F)F)c(Cl)c2)NC(=O)CN(C)C(=O)[C@H](COC)N(C)C(=O)CN(C)C(=O)CN(C)C1=O [Compound 623] ([NMeL]I[Sar][Sar][NMeS](Me)[Sar][hPhe(3-Cl-4-CF3)]P[Ac5c][NMeChg][NMeD]-Piperidide; lactam N-11),< 6.30
4,CC[C@H](C)[C@@H]1NC(=O)CCN(C)C(=O)[C@@H](Cc2ccccc2)N(C)C(=O)[C@H](C2CCCC2)N(C)C(=O)C2(CCCC2)NC(=O)[C@@H]2CCCN2C(=O)[C@H](CCc2ccc(C(F)(F)F)c(Cl)c2)NC(=O)CN(C)C(=O)[C@H](CC2CCCCC2)N(C)C(=O)CN(C)C(=O)CN(C)C1=O [Compound 753] (cyclo([Ac5c][NMeGly(cPent)][dNMeF][NMeβAla]I[Sar][Sar][NMeCha][Sar][hPhe(3-Cl-4-CF3)]P)),< 6.30
5,CC[C@H](C)[C@@H]1NC(=O)[C@H](CC(C)C)N(C)C(=O)C[C@@H](C(=O)N2CCCCC2)N(C)C(=O)[C@H](C2CCCCC2)N(C)C(=O)C2(CCCC2)NC(=O)[C@@H]2CCCN2C(=O)[C@H](CCc2ccc(C(F)(F)F)c(Cl)c2)NC(=O)CN(C)C(=O)[C@H](CC2CCCCC2)N(C)C(=O)CN(C)C(=O)[C@H](C)N(C)C1=O [Compound 1345] ([NMeL]I[NMeA][Sar][NMeCha][Sar][hPhe(3-Cl-4-CF3)]P[Ac5c][NMeChg][NMeD]-Piperidide; lactam N-11),< 6.30
6,CC[C@H](C)[C@@H]1NC(=O)[C@H](CC(C)C)N(C)C(=O)C[C@@H](C)NC(=O)[C@H](CC(C)C)N(C)C(=O)C(C)(C)NC(=O)[C@H](COCC(=O)NC(C)(C)C)N(C)C(=O)[C@H](CCc2ccc(C(F)(F)F)c(Cl)c2)NC(=O)CN(C)C(=O)[C@H](COCCC(C)C)N(C)C(=O)CN(C)C(=O)CN(C)C1=O [Compound 1467] (cyclo([Aib][NMeL][d(β3hA)][NMeL]I[Sar][Sar][NMeS](Isopentyl)[Sar][hPhe(3-Cl-4-CF3)][NMeS](CH2CONHtBu))),< 6.30
7,CC[C@H](C)[C@@H]1NC(=O)[C@H](C)N(C)C(=O)C[C@@H](C)NC(=O)[C@H](C(C)C)N(C)C(=O)C2(CCCC2)NC(=O)[C@@H]2CCCN2C(=O)[C@H](CCc2ccc(C(F)(F)F)c(Cl)c2)NC(=O)[C@H]2CCCN2C(=O)[C@H](Cc2ccc(F)cc2)N(C)C(=O)[C@@H]2CCCN2C(=O)CN(C)C1=O [Compound 1667] (cyclo([Ac5c][NMeV][d(β3hA)][NMeA]I[Sar]P[NMePhe(4-F)][dP][hPhe(3-Cl-4-CF3)]P)),< 6.30
8,CC[C@H](C)[C@@H]1NC(=O)[C@H](CC(C)C)N(C)C(=O)C[C@@H](C(=O)N(C)C)N(C)C(=O)[C@H]([C@@H](C)CC)N(C)C(=O)[C@H](C)NC(=O)[C@H](C)N(C)C(=O)[C@H](CCc2ccc(C(F)(F)F)c(Cl)c2)NC(=O)CN(C)C(=O)[C@H](Cc2ccc(C)cc2)N(C)C(=O)[C@@H]2CCN2C(=O)[C@H](C)N(C)C1=O [Compound 715] ([NMeL]I[NMeA][Aze][NMePhe(4-Me)][Sar][hPhe(3-Cl-4-CF3)][NMeA]A[NMeI][NMeD]-NMe2; lactam N-11),< 6.30
9,CCCCCC[C@H]1C(=O)N[C@@H]([C@@H](C)CC)C(=O)N(C)CC(=O)N2CC[C@H]2C(=O)N(C)[C@@H](Cc2ccc(OC)cc2)C(=O)N(C)CC(=O)N[C@@H](Cc2cccc(I)c2)C(=O)N[C@@H](CCCC)C(=O)N(C)C(C)(C)C(=O)N[C@@H](CC(C)C)C(=O)N(C)[C@H](C(=O)N2CCCCC2)CC(=O)N1C [Compound 1417] ([NMeAoc(2)]I[Sar][Aze][NMeY](Me)[Sar][Phe(3-I)][Nle][NMeAib]L[NMeD]-Piperidide; lactam N-11),< 6.30
10,CC[C@H](C)[C@@H]1NC(=O)[C@H](CC(C)C)N(C)C(=O)C[C@@H](C)N(C)C(=O)[C@H](CC(C)C)NC(=O)C(C)(C)N(C)C(=O)[C@H](CC(C)C)NC(=O)[C@H](CCc2ccc(C(F)(F)F)c(Cl)c2)NC(=O)CN(C)C(=O)[C@H](Cc2ccc(C)cc2)N(C)C(=O)[C@@H]2CCN2C(=O)CN(C)C1=O [Compound 1386] (cyclo([Aze][NMePhe(4-Me)][Sar][hPhe(3-Cl-4-CF3)]L[NMeAib]L[NMedβ3hAla][NMeL]I[Sar])),< 6.30
11,C#CC[C@@H]1NC(=O)[C@H](Cc2cccc(I)c2)NC(=O)CN(C)C(=O)[C@H](Cc2ccc(Cl)cc2)N(C)C(=O)[C@@H]2CCN2C(=O)[C@H](C)N(C)C(=O)[C@H]([C@@H](C)CC)NC(=O)[C@H](CC(C)C)N(C)C(=O)C[C@@H](C(=O)N2CCCCC2)N(C)C(=O)[C@H](CC(C)C)NC(=O)C(C)(C)N(C)C1=O [Compound 1428] ([NMeL]I[NMeA][Aze][NMePhe(4-Cl)][Sar][Phe(3-I)][Pra][NMeAib]L[NMeD]-Piperidide; lactam N-11),< 6.30
12,"CC[C@H](C)[C@@H]1NC(=O)[C@H](CC(C)C)N(C)C(=O)C[C@@H](C(=O)N2CCCCC2)NC(=O)[C@H](CC(C)C)N(C)C(=O)C2(CCCC2)NC(=O)[C@@H]2CCCN2C(=O)[C@H](CCc2ccc(C(F)(F)F)c(F)c2)NC(=O)CN(C)C(=O)[C@H](CC2CCCCC2)N(C)C(=O)CN(C)C(=O)CN(C)C1=O [Compound 298] ([NMeL]I[Sar][Sar][NMeCha][Sar][hPhe(3-F,4-CF3)]P[Ac5c][NMeL]D-Piperidide; lactam N-11)",< 6.30
13,CC[C@H](C)[C@@H]1NC(=O)[C@H](C)N(C)C(=O)C[C@@H](C(=O)N2CCCCC2)N(C)C(=O)[C@H](C(C)C)N(C)C(=O)C2(CCCC2)NC(=O)[C@@H]2CCCN2C(=O)[C@H](CCc2ccc(C(F)(F)F)c(Cl)c2)NC(=O)[C@H]2CCCCN2C(=O)[C@H](CC2CCCCC2)N(C)C(=O)[C@@H]2CCN2C(=O)CN(C)C1=O [Compound 553] ([NMeA]I[Sar][Aze][NMeCha][dPip][hPhe(3-Cl-4-CF3)]P[Ac5c][NMeV][NMeD]-Piperidide; lactam N-11),< 6.30
14,CC[C@H](C)[C@@H]1NC(=O)[C@H](CC(C)C)N(C)C(=O)C[C@@H](C(=O)N(C)C)N(C)C(=O)[C@H]([C@@H](C)CC)N(C)C(=O)C2(CCCC2)NC(=O)[C@H](CCc2cccnc2)N(C)C(=O)[C@H](CCc2ccc(C(F)(F)F)c(Cl)c2)NC(=O)CN(C)C(=O)[C@H](Cc2ccc(C)cc2)N(C)C(=O)[C@@H]2CCN2C(=O)[C@H](C)N(C)C1=O [Compound 1886] ([NMeL]I[NMeA][Aze][NMePhe(4-Me)][Sar][hPhe(3-Cl-4-CF3)][X48][Ac5c][NMeI][NMeD]-NMe2; lactam N-11),≥ 7.70
